Measurements: patent publication US8546389B2 (priority 2010, dated 2013)
pEC50, pIC50: −log10 of the molar value.

How the values were obtained:
[1] = target: 1b (BK) NS5bΔ21 (Hepatitis C virus genotype 1b (isolate BK) (HCV), UniProt P26663); assay: HCV polymerase inhibition assay, genotype 1b; type: biochemical, HCV genotype 1b (BK); details: 1b (BK) NS5bΔ21, 33P-GTP incorporation; read-out: 1b polymerase IC50 (range class)
Method in brief: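 Both genotype 1b and 3a enzymes assayed identically: ^33P-GTP incorporation on poly(rC) template, GTP at Km, 50 nM NS5bΔ21, pH 7.5 Tris with 5 mM MgCl2 and MnCl2, 1 h reaction ended by cold EDTA. Filter-bound label counted; IC50 fitted by non-linear regression across three-fold dilution series.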

[2] = system: genotype 1b (Con 1) subgenomic replicon cell line; assay: HCV replicon assay, genotype 1b (Renilla luciferase); type: cell-based, HCV genotype 1b (Con 1); details: Hepatitis C virus; genotype 1b replicon, 72 hours, luciferase; read-out: genotype 1b EC50 (range class)
Method in brief: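 Subgenomic replicon cells expressing Renilla luciferase (1b Con1; 1a and 2a lines by the same method) seeded at 7000 cells/well (5000 for 2a) without G418, exposed to 3-fold compound dilutions for 72 h at 37 °C. Luciferase activity measured; EC50 by non-linear regression.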

Chain of 1b (BK) NS5bΔ21 (P26663 2420-2989): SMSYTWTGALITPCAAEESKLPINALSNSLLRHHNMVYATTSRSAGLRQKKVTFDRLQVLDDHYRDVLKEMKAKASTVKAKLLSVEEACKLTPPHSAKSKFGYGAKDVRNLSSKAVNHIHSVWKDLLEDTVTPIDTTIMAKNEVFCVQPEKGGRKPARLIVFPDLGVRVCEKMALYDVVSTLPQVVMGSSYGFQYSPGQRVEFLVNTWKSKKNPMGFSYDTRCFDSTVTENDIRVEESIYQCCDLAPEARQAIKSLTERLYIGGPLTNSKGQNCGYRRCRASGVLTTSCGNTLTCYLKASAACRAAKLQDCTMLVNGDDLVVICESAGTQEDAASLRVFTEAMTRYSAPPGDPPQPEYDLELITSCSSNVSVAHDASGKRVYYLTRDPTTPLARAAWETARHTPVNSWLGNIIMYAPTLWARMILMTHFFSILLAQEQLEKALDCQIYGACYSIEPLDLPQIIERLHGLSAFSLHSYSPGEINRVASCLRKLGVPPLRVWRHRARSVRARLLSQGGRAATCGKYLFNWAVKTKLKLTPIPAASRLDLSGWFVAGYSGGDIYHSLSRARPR

CNC(=O)c1c2cc(C3CC3)c(N(CCCNCc3ccc(OC)cc3)S(C)(=O)=O)cc2nn1-c1ccc(Br)cc1 [Compound 210]
pIC50 [1]: 5.00 to 6.00
pEC50 [2]: 5.00 to 6.00

CNC(=O)c1c2cc(C3CC3)c(N(CCCNCc3cccnc3)S(C)(=O)=O)cc2nn1-c1ccc(Br)cc1 [Compound 211]
pIC50 [1]: > 6.00
pEC50 [2]: 5.00 to 6.00

CCOC(=O)C(CCCN(c1cc2nn(-c3ccc(Br)cc3)c(C(=O)NC)c2cc1C1CC1)S(C)(=O)=O)C(=O)OCC [Compound 212]
pIC50 [1]: > 6.00
pEC50 [2]: > 6.00

CNC(=O)c1c2cc(C3CC3)c(N(CCCOC)S(C)(=O)=O)cc2nn1-c1ccc(Br)cc1 [Compound 213]
pIC50 [1]: > 6.00
pEC50 [2]: > 6.00

CNC(=O)c1c2cc(C3CC3)c(N(CCCO)S(C)(=O)=O)cc2nn1-c1ccc(C)cc1 [Compound 214]
pIC50 [1]: > 6.00
pEC50 [2]: > 6.00

CNC(=O)c1c2cc(C3CC3)c(N(CCCNC(=O)[C@H]3CCC[C@H]3C(=O)OC)S(C)(=O)=O)cc2nn1-c1ccc(Br)cc1 [Compound 215]
pIC50 [1]: > 6.00
pEC50 [2]: > 6.00

CNC(=O)c1c2cc(C3CC3)c(N(CCCC(=O)NS(=O)(=O)C(F)(F)F)S(C)(=O)=O)cc2nn1-c1ccc(Cl)cc1 [Compound 217]
pIC50 [1]: > 6.00
pEC50 [2]: 5.00 to 6.00

CNC(=O)c1c2cc(C3CC3)c(N(CCCNC(=O)[C@H]3C[C@H]3C(=O)O)S(C)(=O)=O)cc2nn1-c1ccc(Br)cc1 [Compound 218]
pIC50 [1]: > 6.00
pEC50 [2]: 5.00 to 6.00

CNC(=O)c1c2cc(C3CC3)c(N(CCCNC(=O)c3ccn(C)c(=O)c3)S(C)(=O)=O)cc2nn1-c1ccc(Br)cc1 [Compound 219]
pIC50 [1]: > 6.00
pEC50 [2]: 5.00 to 6.00

CNC(=O)c1c2cc(C3CC3)c(N(CCCC(=O)OC(C)C)S(C)(=O)=O)cc2nn1-c1ccc(Br)cc1 [Compound 220]
pIC50 [1]: > 6.00
pEC50 [2]: > 6.00

CCN(C(=O)c1ccco1)c1cc2nn(-c3ccc(Br)cc3)c(C(=O)NC)c2cc1C1CC1 [Compound 221]
pIC50 [1]: 4.30 to 5.00
pEC50 [2]: 5.00 to 6.00

CNC(=O)c1c2cc(C3CC3)c(N(CCCO)S(C)(=O)=O)cc2nn1-c1ccc(Br)c(F)c1 [Compound 223]
pIC50 [1]: > 6.00
pEC50 [2]: > 6.00

CNC(=O)c1c2cc(C3CC3)c(N(CCCC(C(=O)O)C(=O)O)S(C)(=O)=O)cc2nn1-c1ccc(Br)cc1 [Compound 224]
pIC50 [1]: > 6.00
pEC50 [2]: 5.00 to 6.00

CCOC(=O)CCCN(CC)c1cc2nn(-c3ccc(Br)cc3)c(C(=O)NC)c2cc1C1CC1 [Compound 225]
pIC50 [1]: 5.00 to 6.00
pEC50 [2]: > 6.00

CNC(=O)c1c2cc(C3CC3)c(-c3c(C)noc3C)cc2nn1-c1ccc(C)cc1 [Compound 226]
pIC50 [1]: 4.30 to 5.00
pEC50 [2]: 5.00 to 6.00

CNC(=O)c1c2cc(C3CC3)c(N(CCCC(=O)O)S(C)(=O)=O)cc2nn1-c1ccc(C)cc1 [Compound 229]
pIC50 [1]: > 6.00
pEC50 [2]: 4.30 to 5.00

CCOC(=O)CCCN(c1cc2nn(-c3ccc(C)cc3)c(C(=O)NC)c2cc1C1CC1)S(C)(=O)=O [Compound 230]
pIC50 [1]: > 6.00
pEC50 [2]: > 6.00

CNC(=O)c1c2cc(C3CC3)c(N(CC3CC3)S(C)(=O)=O)cc2nn1-c1ccc(Br)cc1 [Compound 231]
pIC50 [1]: > 6.00
pEC50 [2]: > 6.00

CNC(=O)c1c2cc(C3CC3)c(N(CCOC)S(C)(=O)=O)cc2nn1-c1ccc(Br)cc1 [Compound 232]
pIC50 [1]: 5.00 to 6.00
pEC50 [2]: > 6.00

CNC(=O)c1c2cc(C3CC3)c(N(CCC(F)(F)F)S(C)(=O)=O)cc2nn1-c1ccc(Br)cc1 [Compound 233]
pIC50 [1]: > 6.00
pEC50 [2]: > 6.00

CCN(c1cc2nn(-c3ccc(Br)c(F)c3)c(C(=O)NC)c2cc1C1CC1)S(C)(=O)=O [Compound 236]
pIC50 [1]: > 6.00
pEC50 [2]: > 6.00

CNC(=O)c1c2cc(C3CC3)c(N(C)S(C)(=O)=O)cc2nn1-c1ccc(Cl)cc1 [Compound 237]
pIC50 [1]: > 6.00
pEC50 [2]: > 6.00

CNC(=O)c1c2cc(C3CC3)c(N(CCC(CO)CO)S(C)(=O)=O)cc2nn1-c1ccc(Cl)cc1 [Compound 238]
pIC50 [1]: > 6.00
pEC50 [2]: 5.00 to 6.00
